Results as given in patent publication US9421193B2, “Benzothiazole derivatives and a use thereof for the treatment of cancer” (Korea Institute of Radiological & Medical Sciences, priority 2014, dated 2016).

Tests used:
[1] = system: various cancer cell strains (A549, H460, MCF-7, T-470, LoVo, SW480, HL-60, K562); assay: Cancer cell growth inhibition, WST-1 cell viability; type: cell-based, human; settings: for selectivity of cell growth inhibitory effect, cancer versus non-cancer cell strains: cancer cell strains vs MRC-5 and MRC-9; for growth inhibitory effects on various cancer cell strains: concentration of 50 μM, WST-1
Protocol: (§1) Cancer cell growth inhibitory effects of the compounds PB01 and PB11 of Examples 5 and 3 identified as PPAR-γ ligands were evaluated. Growth inhibitory effects of the compounds PB01 and PB11 of Examples 5 and 3 on various cancer cells, including human non-small cell lung cancer cell strains (A549, H460), breast cancer cell strains (MCF-7, T-470), colorectal cancer cell strains (LoVo, SW480), and leukocytes cancer cell strains (HL-60, K562) (American Type Culture Collection, Manassas, Va.), were evaluated using WST-1 method. About 5×10^3 cells per well of each type of cancer cell strains were portioned into a 96-well plate, and incubated with different concentrations of each of the compounds PB01 and PB11 of Examples 5 and 3 in 200 ul of a culture solution for 24 hours, 48 hours, and 72 hours. After the incubation for the different durations, 10 ul of a WST-1 solution was added to each well, followed by incubation at about 37° C. for about 1 hour. Absorbance at 450 nm was measured to determine cell viability.

[2] = system: non-small cell lung cancer cell strain A549; assay: LDH release; type: cell-based, human; settings: 50 uM, 0 to 48 hours, compared to untreated
Protocol: (§2) After incubation of the non-small cell lung cancer cell strains A549 and H460 treated with the compound PB01 or PB11 for 8, 24, and 48 hours, only supernatants were recovered the culture products. The activity of lactate dehydrogenase (LDH) may be measured by detecting an amount of LDH released from the cell cytosol with a Cytotoxicity Detection Kit (available from Roche Applied Science, Indianapolis, Ind.). The amounts of LDH release induced by the compound PB01 or PB11 were calculated as a percentage amount of extracellular LDH released from the cells with respect to a total amount of LDH as a sum of the extracellular released LDH and the intracellular LDH remaining in the cells.

[3] = system: non-small cell lung cancer cell strain H460; assay: LDH release; type: cell-based, human; settings: 50 uM, 0 to 48 hours, compared to untreated
Protocol: as §2

[4] = system: non-small cell lung cancer cell strain H460; assay: Radiation sensitivity measurement, colony formation; type: cell-based, human; settings: 14 days
Protocol: About 500 cells of non-small cell lung cancer cell strain H460 were floated on each of 60-mm cell culture plates, and then incubated for about 24 hours. After the cells were stably fixed on the bottom of the cell culture plate, the cells were treated with ciglitazone (10 μM), PB01 (10 μM), or PB11 (5 μM, 10 μM), cultured for about 24 hours, and then irradiated with γ-radiation (3.2 Gy/min, Gammacell 3000; Atomic Energy of Canada, Ltd., Mississauga, ON, Canada) at doses of 2 Gy, 4 Gy, and 6 Gy. After incubation for 14 days, followed staining using a 1% crystal violet staining reagent solution (in methanol) to selectively count colonies having a diameter of about 0.5 mm or larger. SF (surviving fraction)=number of colonies formed/number of cells seeded×plating efficiency of the control group

[5] = system: non-small cell lung cancer cell strain A549; assay: Cancer cell growth inhibition, WST-1 cell viability; type: cell-based, human; settings: compared among cell strains
Protocol: as §1

[6] = system: non-small cell lung cancer cell strain H460; assay: as above; type: cell-based, human; settings: compared among cell strains
Protocol: as §1

[7] = system: non-cancer lung cell strain MRC-5; assay: Cell growth inhibition in non-cancer lung cells; type: cell-based; settings: MRC-5 non-cancer lung cells
[8] = system: non-cancer lung cell strain MRC-9; assay: Cell growth inhibition in non-cancer lung cells; type: cell-based; settings: MRC-9 non-cancer lung cells

SMILES | selectivity of cell growth inhibitory effect, cancer versus non-cancer cell strains [1] | growth inhibitory effects on various cancer cell strains [1] | amount of extracellular LDH released [2] | amount of extracellular LDH released [3] | effect as radiation sensitizer ([4]; 5 μM in combination with radiation at a dose of 4 Gy) | cancer cell growth inhibition [5] | cancer cell growth inhibition [6] | cell growth inhibitory effect [7] | cell growth inhibitory effect [8] | effect as radiation sensitizer ([4]; 10 μM in combination with radiation at a dose of 4 Gy)
Cc1noc(C)c1CSc1nc2ccc(NC(=O)C3CCC(=O)CC3)cc2s1 [PB11] | selectively only on cancer cell strains | prominent | increased with time | increased with time | significant effect as radiation sensitizers |  |  |  |  | 
COC1CCC(C(=O)Nc2ccc3nc(SCc4c(C)noc4C)sc3c2)CC1 (centres unmarked) [PB01] | selectively only on cancer cell strains | prominent | increased with time | increased with time |  | most effective | most effective | nearly zero | nearly zero | significant effect as radiation sensitizers
